From patent US6506392B2, “Theraputic topical solution for skin and associated methods of use” (priority 2000, dated 2003) come the findings set out here.

In this experiment the test system is skin exhibiting psoriasis. In words: topical application to skin exhibiting psoriasis (Example 1). It counts as in vivo, human. Particulars: one subject, treatments used before the solution. From the text:
A further understanding of the present invention will be afforded by a consideration of the following non-limiting examples. In these examples, the “full strength” 100% solution was utilized. These examples are illustrative of the principals of the present invention and are not intended to limit the scope of the invention to the exemplary uses and formulations.
Three subjects, two male and one […], suffering from psoriasis, applied the solution to areas on their bodies and rubbed in the solution with their fingertips several times per day or as needed. Areas of application included knees and elbows.
It is important to note that some of the subjects had suffered from psoriasis for an extended period of time and had tried a variety of treatments. One subject had previously utilized various tars, cortisones, temovate and methotrexate treatments.

Take `CN(Cc1cnc2nc(N)nc(N)c2n1)c1ccc(C(=O)N[C@@H](CCC(=O)O)C(=O)O)cc1` [methotrexate]: the “outcome of previous psoriasis treatments” value is “without success”.
In the case of `CCC(=O)O[C@]1(C(=O)CCl)[C@@H](C)C[C@H]2[C@@H]3CCC4=CC(=O)C=C[C@]4(C)[C@@]3(F)[C@@H](O)C[C@@]21C` [temovate], the “outcome of previous psoriasis treatments” value was “without success”.
